Reference: patent US9695155B2, “Herbicidal substituted pyrimidinyloxy benzene compounds” (E. I. DU PONT DE NEMOURS AND COMPANY, priority 2013, dated 2017)

Columns and labels:
[1] = tested on: wheat; experiment: Test A postemergence; assay type: in vivo, Triticum aestivum; details: 0 to 100 scale where 0 is no effect and 100 is complete control
Summary of the method: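 Visual injury scored 0–100 (100 = complete control) against untreated controls about 10 days after treatment in a greenhouse. Test chemicals, formulated with surfactant in non-phytotoxic solvent, were sprayed on soil preemergence or on 2-10 cm, one- to two-leaf plants postemergence.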

[2] = tested on: sedge, umbrella; experiment: Test B flooded paddy test; assay type: in vivo, Cyperus difformis; details: Flood, 250 g ai/ha; 0 to 100 scale where 0 is no effect and 100 is complete control
Summary of the method: (§1)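 Evaluation is visual, against untreated controls, 13 to 15 days after treatment. Before treatment, plants reached the 2-leaf stage; pots were then flooded 3 cm deep, compound was added to the water, and that level was maintained. Ratings run 0 to 100, with 100 meaning complete control.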

[3] = tested on: Heteranthera limosa; experiment: Test B flooded paddy test; assay type: in vivo; details: Flood, 250 g ai/ha; 0 to 100 scale where 0 is no effect and 100 is complete control
Summary of the method: as §1

[4] = tested on: blackgrass; experiment: Test C preemergence; assay type: in vivo, Alopecurus myosuroides; details: for Blackgrass plant response rating: preemergence; for Plant response rating, Blackgrass: Preemergence, 31 g ai/ha, scale 0 to 100, 0 no effect, 100 complete control
Summary of the method: (§2)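 Plants were kept under greenhouse conditions for 13–15 days following spray. Pre-emergent application went to soil (loam–sand), post-emergent to foliage at 1–4 leaves. Evaluation: visual, percent control against untreated checks.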

[5] = tested on: Italian ryegrass; experiment: Test C preemergence; assay type: in vivo, Lolium multiflorum; details: for Ryegrass, Italian plant response rating: preemergence; for Plant response rating, Ryegrass, Italian: Preemergence, 31 g ai/ha, scale 0 to 100, 0 no effect, 100 complete control
Summary of the method: as §2

[6] = tested on: wheat, winter; experiment: Test C preemergence; assay type: in vivo, Triticum aestivum; details: for Wheat plant response rating: preemergence; for Plant response rating, Wheat: Preemergence, 31 g ai/ha, scale 0 to 100, 0 no effect, 100 complete control
Summary of the method: as §2

[7] = tested on: johnsongrass; experiment: Test C preemergence; assay type: in vivo, Sorghum halepense; details: for Johnsongrass plant response rating: preemergence; for Plant response rating, Johnsongrass: Preemergence, 31 g ai/ha, scale 0 to 100, 0 no effect, 100 complete control
Summary of the method: as §2

[8] = tested on: ragweed; experiment: Test C preemergence; assay type: in vivo, Ambrosia elatior; details: for Ragweed plant response rating: preemergence; for Plant response rating, Ragweed: Preemergence, 31 g ai/ha, scale 0 to 100, 0 no effect, 100 complete control
Summary of the method: as §2

[9] = tested on: velvetleaf; experiment: Test C preemergence; assay type: in vivo, Abutilon theophrasti; details: for Velvetleaf plant response rating: preemergence; for Plant response rating, Velvetleaf: Preemergence, 31 g ai/ha, scale 0 to 100, 0 no effect, 100 complete control
Summary of the method: as §2

[10] = tested on: pigweed; experiment: Test C postemergence; assay type: in vivo, Amaranthus retroflexus; details: for Plant response rating, Pigweed: scale 0 to 100 (0 no effect, 100 complete control)
Summary of the method: as §2

[11] = tested on: waterhemp; experiment: Test C postemergence; assay type: in vivo, Amaranthus rudis; details: for Plant response rating, Waterhemp: scale 0 to 100 (0 no effect, 100 complete control)
Summary of the method: as §2

[12] = 16 g ai/ha, scale 0 to 100 (0 no effect, 100 complete control)
[13] = 62 g ai/ha, scale 0 (no effect) to 100 (complete control)
[14] = 125 g ai/ha, scale 0 (no effect) to 100 (complete control)
[15] = Postemergence, 31 g ai/ha, 13 to 15 days
[16] = 16 g ai/ha, postemergence, 0 is no effect, 100 is complete control
[17] = 125 g ai/ha, postemergence, visual rating

SMILES | Plant response rating, Wheat ([1]; 500 g ai/ha) | Plant response rating, Sedge, Umbrella [2] | Plant response rating, Ducksalad [3] | Blackgrass plant response rating [4, 12] | Blackgrass plant response rating [4, 13] | Blackgrass plant response rating [4, 14] | Plant response rating, Blackgrass [4] | Ryegrass, Italian plant response rating [5, 12] | Ryegrass, Italian plant response rating [5, 13] | Ryegrass, Italian plant response rating [5, 14] | Plant response rating, Ryegrass, Italian [5] | Wheat plant response rating [6, 12] | Wheat plant response rating [6, 13] | Wheat plant response rating [6, 14] | Plant response rating, Wheat [6] | Johnsongrass plant response rating [7, 12] | Johnsongrass plant response rating [7, 13] | Johnsongrass plant response rating [7, 14] | Plant response rating, Johnsongrass [7] | Ragweed plant response rating [8, 12] | further results
N#Cc1cccc(Oc2ncc(Br)cn2)c1-n1cc(I)cn1 [Compound 88] | 50 | 0 | 25 | 0 | 60 | 90 | 5 | 0 | 0 | 5 | 0 | 0 | 0 | 5 | 0 | 0 | 40 | 85 | 0 | 0 | Plant response rating, Wheat ([1]; 125 g ai/ha): 0; Ragweed plant response rating [8, 13]: 5; Ragweed plant response rating [8, 14]: 60; Plant response rating, Ragweed [8]: 0; Velvetleaf plant response rating [9, 12]: 15; Velvetleaf plant response rating [9, 13]: 100; Velvetleaf plant response rating [9, 14]: 100; Plant response rating, Velvetleaf [9]: 98; Plant response rating (0 to 100), Pigweed ([10]; 125 g ai/ha, postemergence): 90; Plant response rating, Pigweed [10, 15]: 85; Plant response rating, Pigweed ([10]; Postemergence, 62 g ai/ha): 85; Plant response rating (0 to 100), Waterhemp ([11]; 125 g ai/ha, postemergence): 90; Plant response rating, Waterhemp [11, 15]: 75; Plant response rating, Waterhemp ([11]; Postemergence, 62 g ai/ha): 85
CCOc1cnn(-c2c(C#N)cccc2Oc2ncc(F)cn2)c1 [Compound 89] | 70 | 85 | 95 | 0 | 5 | 50 | 0 | 0 | 45 | 50 | 5 | 0 | 0 | 5 | 0 | 0 | 20 | 75 | 0 | 40 | Plant response rating, Wheat ([1]; 125 g ai/ha): 20; Ragweed plant response rating [8, 13]: 75; Ragweed plant response rating [8, 14]: 100; Plant response rating, Ragweed [8]: 55; Velvetleaf plant response rating [9, 12]: 20; Velvetleaf plant response rating [9, 13]: 100; Velvetleaf plant response rating [9, 14]: 100; Plant response rating, Velvetleaf [9]: 70; Plant response rating (0 to 100), Pigweed ([10]; 125 g ai/ha, postemergence): 40; Plant response rating, Pigweed [10, 15]: 35; Plant response rating, Pigweed ([10]; Postemergence, 62 g ai/ha): 35; Plant response rating (0 to 100), Waterhemp ([11]; 125 g ai/ha, postemergence): 60; Plant response rating, Waterhemp [11, 15]: 40; Plant response rating, Waterhemp ([11]; Postemergence, 62 g ai/ha): 30
Clc1cnc(Oc2cccc(Br)c2-n2cc(Br)nn2)nc1 [Compound 129] | 70 | 65 | 65 | 0 | 5 | 90 | 50 | 0 | 10 | 35 | 0 | 0 | 0 | 15 | 0 | 0 | 40 | 90 | 10 | 0 | Wheat plant response rating ([1]; 125 g ai/ha): 0; Ragweed plant response rating [8, 13]: 60; Ragweed plant response rating [8, 14]: 85; Plant response rating, Ragweed [8]: 20; Velvetleaf plant response rating [9, 12]: 35; Velvetleaf plant response rating [9, 13]: 100; Velvetleaf plant response rating [9, 14]: 100; Plant response rating, Velvetleaf [9]: 70; Plant response rating (0 to 100), Pigweed [10, 16]: 70; Plant response rating, Pigweed [10, 17]: 90; Plant response rating, Pigweed ([10]; Postemergence, 62 g ai/ha): 80; Plant response rating (0 to 100), Waterhemp [11, 16]: 65; Plant response rating, Waterhemp [11, 17]: 85; Plant response rating, Waterhemp ([11]; Postemergence, 62 g ai/ha): 65
